# US10399940B2, “Substituted pyrrolidines and methods of use” (AbbVie S.à.r.l., priority 2016, dated 2019)
# Where two headings read alike, the source gives them in different places.
# Molecular target: T1, F508delCFTR (Homo sapiens, UniProt P13569, DEL508-508)
# T1 construct: expressed in transfected cells; host or cells: CFBE41o- (human lung derived epithelial cell line), doxycycline-inducible expression
# Experiment: Cell Surface Expression-Horse Radish Peroxidase (CSE-HRP) assay
# Format: cell-based
# Conditions: CFBE41o-F508delCFTR-HRP cells; for Maximum % activity (with co-corrector): with co-corrector (2 μM); for Maximum % activity (with co-corrector) / Maximum % activity (without co-corrector): normalized to on-plate positive control, highest concentration 20 μM
# Summary of the method: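 Surface F508delCFTR-HRP was read by luminol luminescence after 18–24 h compound exposure at 33 °C, without or with 2 μM co-corrector. Doses were eight 3-fold steps from 20 μM, in doxycycline-induced (0.5 μg/mL, 72 h) CFBE41o- cells. % activity was scaled to the on-plate 2 μM positive control minus DMSO; EC50 came from a variable-slope sigmoid fit.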
# [1] = test compound without co-corrector, 18-24 hours at 33° C., read-out: EC50 (without co-corrector)
# [2] = with co-corrector (2 μM of 3-[(2R,4R)-4-({[1-(2,2-difluoro-1,3-benzodioxol-5-yl)cyclopropyl]carbonyl}amino)-7-methoxy-3,4-dihydro-2H-chromen-2-yl]benzoic acid), read-out: EC50 (with co-corrector)
# T1 sequence (P13569 with tags, fused parts or gaps DEL508-508): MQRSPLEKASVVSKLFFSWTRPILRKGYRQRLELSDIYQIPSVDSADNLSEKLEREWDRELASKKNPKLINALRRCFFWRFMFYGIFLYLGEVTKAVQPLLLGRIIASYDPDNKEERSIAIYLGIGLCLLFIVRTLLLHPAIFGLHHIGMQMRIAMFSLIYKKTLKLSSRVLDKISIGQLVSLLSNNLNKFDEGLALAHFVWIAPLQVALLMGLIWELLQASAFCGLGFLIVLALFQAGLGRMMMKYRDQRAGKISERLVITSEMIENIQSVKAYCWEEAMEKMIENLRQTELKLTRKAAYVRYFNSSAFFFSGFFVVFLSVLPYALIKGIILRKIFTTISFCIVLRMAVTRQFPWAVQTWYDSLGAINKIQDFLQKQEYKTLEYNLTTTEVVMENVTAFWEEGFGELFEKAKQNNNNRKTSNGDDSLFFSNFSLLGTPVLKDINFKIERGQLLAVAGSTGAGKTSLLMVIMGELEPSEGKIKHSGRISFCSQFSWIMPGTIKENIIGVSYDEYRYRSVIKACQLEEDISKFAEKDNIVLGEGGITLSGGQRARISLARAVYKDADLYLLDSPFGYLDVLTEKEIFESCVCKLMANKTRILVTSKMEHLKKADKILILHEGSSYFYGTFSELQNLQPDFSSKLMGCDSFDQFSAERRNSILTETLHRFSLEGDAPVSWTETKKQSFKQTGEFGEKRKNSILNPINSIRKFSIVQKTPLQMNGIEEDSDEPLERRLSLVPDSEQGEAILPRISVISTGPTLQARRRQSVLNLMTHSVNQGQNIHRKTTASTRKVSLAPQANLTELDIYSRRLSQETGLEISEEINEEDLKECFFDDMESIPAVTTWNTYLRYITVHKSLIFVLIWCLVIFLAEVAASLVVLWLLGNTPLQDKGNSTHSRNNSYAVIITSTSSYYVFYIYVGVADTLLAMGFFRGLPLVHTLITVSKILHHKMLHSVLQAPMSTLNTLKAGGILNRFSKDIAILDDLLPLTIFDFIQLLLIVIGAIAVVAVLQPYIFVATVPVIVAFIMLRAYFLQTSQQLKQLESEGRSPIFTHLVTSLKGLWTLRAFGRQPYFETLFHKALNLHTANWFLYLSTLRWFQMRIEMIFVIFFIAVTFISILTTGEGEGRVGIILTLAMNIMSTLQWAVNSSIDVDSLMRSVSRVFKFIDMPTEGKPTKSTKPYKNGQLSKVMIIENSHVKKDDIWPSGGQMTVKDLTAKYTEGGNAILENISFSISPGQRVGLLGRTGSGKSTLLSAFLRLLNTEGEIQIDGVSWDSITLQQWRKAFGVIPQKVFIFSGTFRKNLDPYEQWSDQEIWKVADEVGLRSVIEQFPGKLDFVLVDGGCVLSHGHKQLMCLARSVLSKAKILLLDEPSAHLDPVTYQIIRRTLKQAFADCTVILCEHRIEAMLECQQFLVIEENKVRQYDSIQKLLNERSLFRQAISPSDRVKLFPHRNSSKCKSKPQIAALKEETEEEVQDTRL
Compound,EC50 [1],EC50 [2],Maximum % activity (with co-corrector),Maximum % activity (without co-corrector)
"COc1ncc(C(F)(F)F)cc1CO[C@@H]1[C@H](C(C)(C)C)[C@@H](C(=O)O)N(C(=O)[C@@H]2CCCO2)[C@H]1c1cccc(C(C)(C)C)c1 [Example 122, (2S,3R,4R,5S)-3-tert-butyl-5-(3-tert-butylphenyl)-4-{[2-methoxy-5-(trifluoromethyl)pyridin-3-yl]methoxy}-1-[(2S)-oxolane-2-carbonyl]pyrrolidine-2-carboxylic acid]",> 10000 nM,> 10000 nM,+ (<150),+ (<100)
"COc1ncc(C(F)(F)F)cc1CO[C@H]1[C@H](C(C)(C)C)[C@@H](C(=O)O)N(C(=O)[C@@H]2CCCCO2)[C@H]1c1cccc(Cl)c1 [Example 123, (2S,3R,4S,5S)-3-tert-butyl-5-(3-chlorophenyl)-4-{[2-methoxy-5-(trifluoromethyl)pyridin-3-yl]methoxy}-1-[(2S)-oxane-2-carbonyl]pyrrolidine-2-carboxylic acid]",1000 to 10000 nM,< 1000 nM,+++ (≥350),++ (≥100 and <200)
"COc1ncc(C(F)(F)F)cc1CO[C@H]1[C@H](C(C)(C)C)[C@@H](C(=O)O)N(C(=O)OC(C)C)[C@H]1c1cccc(Br)c1 [Example 124, (2S,3R,4S,5S)-5-(3-bromophenyl)-3-tert-butyl-4-{[2-methoxy-5-(trifluoromethyl)pyridin-3-yl]methoxy}-1-{[(propan-2-yl)oxy]carbonyl}pyrrolidine-2-carboxylic acid]",1000 to 10000 nM,< 1000 nM,++ (≥150 and <350),+ (<100)
"COc1ncc(C(F)(F)F)cc1CO[C@@H]1[C@H](C(C)(C)C)[C@@H](C(=O)O)N(C(=O)[C@@H]2CCCO2)[C@H]1c1ccccc1Br [Example 126, (2S,3R,4R,5S)-5-(2-bromophenyl)-3-tert-butyl-4-{[2-methoxy-5-(trifluoromethyl)pyridin-3-yl]methoxy}-1-[(2S)-oxolane-2-carbonyl]pyrrolidine-2-carboxylic acid]",> 10000 nM,> 10000 nM,+ (<150),+ (<100)
"COc1ncc(C(F)(F)F)cc1CO[C@H]1[C@H](C(C)(C)C)[C@@H](C(=O)O)N(C(=O)[C@@H]2CCCO2)[C@H]1c1ccnn1C(C)C [Example 127, (2S,3R,4S,5S)-3-tert-butyl-4-{[2-methoxy-5-(trifluoromethyl)pyridin-3-yl]methoxy}-1-[(2S)-oxolane-2-carbonyl]-5-[1-(propan-2-yl)-1H-pyrazol-5-yl]pyrrolidine-2-carboxylic acid]",> 10000 nM,> 10000 nM,+ (<150),+ (<100)
"COc1ncc(C(F)(F)F)cc1CO[C@H]1[C@H](C(C)(C)C)[C@@H](C(=O)O)N(C(=O)[C@@H]2CCCCO2)[C@H]1c1ccccc1C1CC1 [Example 128, (2S,3R,4S,5S)-3-tert-butyl-5-(2-cyclopropylphenyl)-4-{[2-methoxy-5-(trifluoromethyl)pyridin-3-yl]methoxy}-1-[(2S)-oxane-2-carbonyl]pyrrolidine-2-carboxylic acid]",1000 to 10000 nM,< 1000 nM,+++ (≥350),++ (≥100 and <200)

# Other lines, results leading:
EC50 [1],EC50 [2],Maximum % activity (with co-corrector),Maximum % activity (without co-corrector),Compound
1000 to 10000 nM,1000 to 10000 nM,+++ (≥350),++ (≥100 and <200),"COc1nc2ccccc2cc1CO[C@H]1[C@H](C(C)(C)C)[C@@H](C(=O)O)N(C(=O)[C@@H]2CCCO2)[C@H]1c1ccccc1C(C)C [Example 116, (2S,3R,4S,5S)-3-tert-butyl-4-[(2-methoxyquinolin-3-yl)methoxy]-1-[(2S)-oxolane-2-carbonyl]-5-[2-(propan-2-yl)phenyl]pyrrolidine-2-carboxylic acid]"
< 1000 nM,< 1000 nM,++ (≥150 and <350),+ (<100),"COc1ncc(C(F)(F)F)cc1CO[C@H]1[C@H](C(C)(C)C)[C@@H](C(=O)O)N(C(=O)[C@@H]2CCCO2)[C@H]1c1cccc(C(C)C)c1 [Example 117, (2S,3R,4S,5S)-3-tert-butyl-4-{[2-methoxy-5-(trifluoromethyl)pyridin-3-yl]methoxy}-1-[(2S)-oxolane-2-carbonyl]-5-[3-(propan-2-yl)phenyl]pyrrolidine-2-carboxylic acid]"
1000 to 10000 nM,< 1000 nM,+++ (≥350),++ (≥100 and <200),"COc1ncc(C(F)(F)F)cc1CO[C@H]1[C@H](C(C)(C)C)[C@@H](C(=O)O)N(C(=O)[C@@H]2CCCO2)[C@H]1c1cccc(Br)c1 [Example 118, (2S,3R,4S,5S)-5-(3-bromophenyl)-3-tert-butyl-4-{[2-methoxy-5-(trifluoromethyl)pyridin-3-yl]methoxy}-1-[(2S)-oxolane-2-carbonyl]pyrrolidine-2-carboxylic acid]"
1000 to 10000 nM,1000 to 10000 nM,+++ (≥350),++ (≥100 and <200),"COc1ncc(C(F)(F)F)cc1CO[C@H]1[C@H](C(C)(C)C)[C@@H](C(=O)O)N(C(=O)[C@@H]2CCCO2)[C@H]1c1cccc(Cl)c1 [Example 119, (2S,3R,4S,5S)-3-tert-butyl-5-(3-chlorophenyl)-4-{[2-methoxy-5-(trifluoromethyl)pyridin-3-yl]methoxy}-1-[(2S)-oxolane-2-carbonyl]pyrrolidine-2-carboxylic acid]"
1000 to 10000 nM,< 1000 nM,++ (≥150 and <350),+ (<100),"COc1ncc(C(F)(F)F)cc1CO[C@H]1[C@H](C(C)(C)C)[C@@H](C(=O)O)N(C(=O)[C@@H]2CCCO2)[C@H]1c1cccc(C2CC2)c1 [Example 120, (2S,3R,4S,5S)-3-tert-butyl-5-(3-cyclopropylphenyl)-4-{[2-methoxy-5-(trifluoromethyl)pyridin-3-yl]methoxy}-1-[(2S)-oxolane-2-carbonyl]pyrrolidine-2-carboxylic acid]"
< 1000 nM,< 1000 nM,++ (≥150 and <350),+ (<100),"COc1ncc(C(F)(F)F)cc1CO[C@H]1[C@H](C(C)(C)C)[C@@H](C(=O)O)N(C(=O)[C@@H]2CCCO2)[C@H]1c1cccc(C(C)(C)C)c1 [Example 121, (2S,3R,4S,5S)-3-tert-butyl-5-(3-tert-butylphenyl)-4-{[2-methoxy-5-(trifluoromethyl)pyridin-3-yl]methoxy}-1-[(2S)-oxolane-2-carbonyl]pyrrolidine-2-carboxylic acid]"
< 1000 nM,< 1000 nM,++ (≥150 and <350),+ (<100),"COc1ncc(C(F)(F)F)cc1CO[C@H]1[C@H](C(C)(C)C)[C@@H](C(=O)O)N(C(=O)[C@H]2CCCCO2)[C@H]1c1cccc(Cl)c1 [Example 125, (2S,3R,4S,5S)-3-tert-butyl-5-(3-chlorophenyl)-4-{[2-methoxy-5-(trifluoromethyl)pyridin-3-yl]methoxy}-1-[(2R)-oxane-2-carbonyl]pyrrolidine-2-carboxylic acid]"
